Key:
CP50-MEL-B = test: cells; assay type: functional, cell-based; conditions: Homo sapiens;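 note: growth inhibition of the human cell line, measured with a cell viability read-out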
Description: SANGER: Inhibition of human CP50-MEL-B cell growth in a cell viability assay.

DMS-153 = test: cells; assay type: functional, cell-based, Homo sapiens; conditions: Homo sapiens, DMS-153
Description: SANGER: Inhibition of human DMS-153 cell growth in a cell viability assay.

DMS-79 = test: cells; assay type: functional, cell-based, Homo sapiens; conditions: Homo sapiens, DMS-79
Description: SANGER: Inhibition of human DMS-79 cell growth in a cell viability assay.

Daudi = test: cells; assay type: functional, cell-based, Homo sapiens; conditions: Homo sapiens, Daudi;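 note: growth inhibition of Daudi cells, read out by a viability assay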
Description: SANGER: Inhibition of human Daudi cell growth in a cell viability assay.

EC-GI-10 = test: cells; assay type: functional, cell-based, Homo sapiens; conditions: Homo sapiens, EC-GI-10
Description: SANGER: Inhibition of human EC-GI-10 cell growth in a cell viability assay.

EFO-27 = test: cells; assay type: functional, cell-based; conditions: Homo sapiens;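 note: growth inhibition of EFO-27 cells, read out with a cell viability assay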
Description: SANGER: Inhibition of human EFO-27 cell growth in a cell viability assay.

FTC-133 = test: cells; assay type: functional, cell-based; conditions: Homo sapiens
G-401 = test: cells; assay type: functional, cell-based; conditions: Homo sapiens
Description: SANGER: Inhibition of human G-401 cell growth in a cell viability assay.

HCC1806 = test: cells; assay type: functional, cell-based; conditions: Homo sapiens;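 note: growth inhibition of the cancer cell line, determined with a cell viability assay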
Description: SANGER: Inhibition of human HCC1806 cell growth in a cell viability assay.

HCC 2998 = test: cells; assay type: functional, cell-based; conditions: Homo sapiens;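 note: growth inhibition of human HCC2998 cells, measured with a cell viability read-out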
Description: SANGER: Inhibition of human HCC2998 cell growth in a cell viability assay.

HCC70 = test: cells; assay type: functional, cell-based; conditions: Homo sapiens;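 note: cell viability assay measuring how strongly the compound suppresses proliferation of HCC70 cells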
Description: SANGER: Inhibition of human HCC70 cell growth in a cell viability assay.

HT-1080 = test: cells; assay type: functional, cell-based; conditions: Homo sapiens
Description: SANGER: Inhibition of human HT-1080 cell growth in a cell viability assay.

HT-3 = test: cells; assay type: functional, cell-based; conditions: Homo sapiens;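 note: growth inhibition measured with a cell viability readout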
Description: SANGER: Inhibition of human HT-3 cell growth in a cell viability assay.

HT55 = test: cells; assay type: functional, cell-based; conditions: Homo sapiens;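 note: cell viability readout measuring growth inhibition of human HT55 cells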
Description: SANGER: Inhibition of human HT55 cell growth in a cell viability assay.

IM-9 = test: SANGER: Inhibition of human IM-9 cell growth in a cell viability assay.; assay type: functional, cell-based; conditions: Homo sapiens, IM-9
KYSE-70 cell line = test: cells; assay type: functional, cell-based; conditions: Homo sapiens;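 note: cell viability assay read-out, with IC50 expressing suppression of KYSE-70 cell growth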
Description: SANGER: Inhibition of human KYSE-70 cell growth in a cell viability assay.

L-540 = test: cells; assay type: functional, cell-based, Homo sapiens; conditions: Homo sapiens, L-540;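 note: growth inhibition of the human L-540 cell line, read out with a viability assay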
Description: SANGER: Inhibition of human L-540 cell growth in a cell viability assay.

LP-1 = test: cells; assay type: functional, cell-based, Homo sapiens; conditions: Homo sapiens, LP-1;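 note: growth inhibition of human LP-1 cells, with the read-out taken from a cell viability assay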
Description: SANGER: Inhibition of human LP-1 cell growth in a cell viability assay.

M059J = test: cells; assay type: functional, cell-based; conditions: Homo sapiens;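 note: growth inhibition of M059J cells, read out with a cell viability assay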
Description: SANGER: Inhibition of human M059J cell growth in a cell viability assay.

MDA-MB-415 = test: cells; assay type: functional, cell-based; conditions: Homo sapiens
MG-63 = test: cells; assay type: functional, cell-based; conditions: Homo sapiens;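 note: growth inhibition of human MG-63 cells, read out with a cell viability assay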
Description: SANGER: Inhibition of human MG-63 cell growth in a cell viability assay.

MKN-45 = test: cells; assay type: functional, cell-based; conditions: Homo sapiens;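 note: growth inhibition of human MKN-45 cells, measured with a cell viability assay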
Description: SANGER: Inhibition of human MKN45 cell growth in a cell viability assay.

NCI-H1436 = test: cells; assay type: functional, cell-based, Homo sapiens; conditions: Homo sapiens, NCI-H1436;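 note: growth suppression of human NCI-H1436 cells, determined with a cell viability readout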
Description: SANGER: Inhibition of human NCI-H1436 cell growth in a cell viability assay.

NCI-H1623 = test: cells; assay type: functional, cell-based; conditions: Homo sapiens;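 note: cell viability assay used as the read-out for growth inhibition of NCI-H1623 cells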
Description: SANGER: Inhibition of human NCI-H1623 cell growth in a cell viability assay.

NCI-H187 = test: cells; assay type: functional, cell-based, Homo sapiens; conditions: Homo sapiens, NCI-H187;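 note: growth inhibition of NCI-H187 cells, read out as cell viability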
Description: SANGER: Inhibition of human NCI-H187 cell growth in a cell viability assay.

NCI-H2052 = test: cells; assay type: functional, cell-based; conditions: Homo sapiens;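 note: growth inhibition of NCI-H2052 cells, read out with a cell viability assay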
Description: SANGER: Inhibition of human NCI-H2052 cell growth in a cell viability assay.

NCI-H2452 = test: cells; assay type: functional, cell-based; conditions: Homo sapiens;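 note: growth inhibition of NCI-H2452 cells, read out with a cell viability assay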
Description: SANGER: Inhibition of human NCI-H2452 cell growth in a cell viability assay.

NCI-H345 = test: cells; assay type: functional, cell-based, Homo sapiens; conditions: Homo sapiens, NCI-H345;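 note: growth inhibition of NCI-H345 cells measured with a cell viability assay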
Description: SANGER: Inhibition of human NCI-H345 cell growth in a cell viability assay.

SNU-16 = test: cells; assay type: functional, cell-based, Homo sapiens; conditions: Homo sapiens, SNU-16;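 note: growth inhibition of human SNU-16 cells, determined with a cell viability readout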
Description: SANGER: Inhibition of human NCI-SNU-16 cell growth in a cell viability assay.

NY = test: cells; assay type: functional, cell-based; conditions: Homo sapiens
Description: SANGER: Inhibition of human NY cell growth in a cell viability assay.

OPM-2 = test: cells; assay type: functional, cell-based, Homo sapiens; conditions: Homo sapiens, OPM-2;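 note: growth of OPM-2 cells measured with a viability assay, IC50 for suppression of proliferation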
Description: SANGER: Inhibition of human OPM-2 cell growth in a cell viability assay.

PC-3 = test: cells; assay type: functional, cell-based; conditions: Homo sapiens;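 note: cell viability assay measuring growth inhibition of PC-3 cells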
Description: SANGER: Inhibition of human PC-3 cell growth in a cell viability assay.

REH = test: cells; assay type: functional, cell-based, Homo sapiens; conditions: Homo sapiens, REH;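 note: growth inhibition of REH cells determined with a cell viability read-out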
Description: SANGER: Inhibition of human REH cell growth in a cell viability assay.

RMG-I = test: cells; assay type: functional, cell-based; conditions: Homo sapiens;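 note: growth inhibition of human RMG-I cells, read out with a cell viability assay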
Description: SANGER: Inhibition of human RMG-I cell growth in a cell viability assay.

RPMI-7951 = test: cells; assay type: functional, cell-based; conditions: Homo sapiens
Description: SANGER: Inhibition of human RPMI-7951 cell growth in a cell viability assay.

RPMI 8402 = test: SANGER: Inhibition of human RPMI-8402 cell growth in a cell viability assay.; assay type: functional, cell-based; conditions: Homo sapiens, RPMI 8402
SBC-5 = test: cells; assay type: functional, cell-based; conditions: Homo sapiens;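 note: cell viability assay read-out, IC50 is the concentration that inhibits growth of the cells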
Description: SANGER: Inhibition of human SBC-5 cell growth in a cell viability assay.

SIG-M5 = test: cells; assay type: functional, cell-based, Homo sapiens; conditions: Homo sapiens, SIG-M5;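 note: cell viability assay read-out, measuring how strongly growth of cultured human SIG-M5 cells is inhibited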
Description: SANGER: Inhibition of human SIG-M5 cell growth in a cell viability assay.

SK-MEL-24 = test: cells; assay type: functional, cell-based; conditions: Homo sapiens;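 note: growth inhibition read out by a cell viability assay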
Description: SANGER: Inhibition of human SK-MEL-24 cell growth in a cell viability assay.

SK-MM-2 = test: cells; assay type: functional, cell-based, Homo sapiens; conditions: Homo sapiens, SK-MM-2;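 note: growth inhibition of human SK-MM-2 cells, read out with a cell viability assay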
Description: SANGER: Inhibition of human SK-MM-2 cell growth in a cell viability assay.

SNU-C1 = test: cells; assay type: functional, cell-based, Homo sapiens; conditions: Homo sapiens, SNU-C1;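 note: growth inhibition of SNU-C1 human cells, read out by a cell viability assay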
Description: SANGER: Inhibition of human SNU-C1 cell growth in a cell viability assay.

SUP-T1 = test: cells; assay type: functional, cell-based, Homo sapiens; conditions: Homo sapiens, SUP-T1;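 note: growth inhibition of human SUP-T1 cells, read out as cell viability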
Description: SANGER: Inhibition of human SUP-T1 cell growth in a cell viability assay.

SW1417 = test: cells; assay type: functional, cell-based; conditions: Homo sapiens;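 note: growth inhibition of human SW1417 cells, read out with a cell viability assay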
Description: SANGER: Inhibition of human SW1417 cell growth in a cell viability assay.

SW48 = test: cells; assay type: functional, cell-based; conditions: Homo sapiens;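 note: growth inhibition of SW48 cells, read out with a cell viability assay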
Description: SANGER: Inhibition of human SW48 cell growth in a cell viability assay.

SiHa = test: cells; assay type: functional, cell-based; conditions: Homo sapiens;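 note: Viability-based readout of growth inhibition in SiHa cells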
Description: SANGER: Inhibition of human SiHa cell growth in a cell viability assay.

T-24 = test: cells; assay type: functional, cell-based; conditions: Homo sapiens;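 note: growth inhibition of T-24 cells, read out with a cell viability assay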
Description: SANGER: Inhibition of human T-24 cell growth in a cell viability assay.

TALL-1 = test: cells; assay type: functional, cell-based, Homo sapiens; conditions: Homo sapiens, TALL-1;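 note: growth inhibition of cultured human TALL-1 cells, read out by a cell viability assay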
Description: SANGER: Inhibition of human TALL-1 cell growth in a cell viability assay.

23132-87 = test: cells; assay type: functional, cell-based; conditions: Homo sapiens
Description: SANGER: Inhibition of human 23132-87 cell growth in a cell viability assay.

A 172 = test: cells; assay type: functional, cell-based; conditions: Homo sapiens;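 note: growth inhibition of A172 cells, measured with a cell viability readout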
Description: SANGER: Inhibition of human A172 cell growth in a cell viability assay.

A-431 = test: cells; assay type: functional, cell-based; conditions: Homo sapiens;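 note: growth inhibition of A-431 cells, determined with a cell viability read-out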
Description: SANGER: Inhibition of human A431 cell growth in a cell viability assay.

AGS = test: cells; assay type: functional, cell-based; conditions: Homo sapiens;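 note: growth inhibition of AGS cells, determined with a cell viability assay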
Description: SANGER: Inhibition of human AGS cell growth in a cell viability assay.

ASPC1 = test: cells; assay type: functional, cell-based; conditions: Homo sapiens;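 note: growth inhibition of AsPC-1 cells, read out with a cell viability assay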
Description: SANGER: Inhibition of human AsPC-1 cell growth in a cell viability assay.

BC-3 = test: cells; assay type: functional, cell-based, Homo sapiens; conditions: Homo sapiens, BC-3;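 note: cell viability assay measuring growth inhibition of human BC-3 cells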
Description: SANGER: Inhibition of human BC-3 cell growth in a cell viability assay.

CAL-12T = test: cells; assay type: functional, cell-based; conditions: Homo sapiens;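 note: growth inhibition of human CAL-12T cells, read out with a cell viability assay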
Description: SANGER: Inhibition of human CAL-12T cell growth in a cell viability assay.

CAL-62 = test: cells; assay type: functional, cell-based; conditions: Homo sapiens;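 note: growth inhibition of CAL-62 cells, read out with a cell viability assay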
Description: SANGER: Inhibition of human CAL-62 cell growth in a cell viability assay.

TUR = test: cells; assay type: functional, cell-based, Homo sapiens; conditions: Homo sapiens, TUR;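 note: growth inhibition of human TUR cells, read out with a cell viability assay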
Description: SANGER: Inhibition of human TUR cell growth in a cell viability assay.

TYK-nu = test: cells; assay type: functional, cell-based; conditions: Homo sapiens;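 note: growth inhibition of human TYK-nu cells, read out by a cell viability assay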
Description: SANGER: Inhibition of human TYK-nu cell growth in a cell viability assay.

U-251 = test: cells; assay type: functional, cell-based; conditions: Homo sapiens;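 note: growth inhibition of human U-251 cells, read out through a cell viability assay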
Description: SANGER: Inhibition of human U251 cell growth in a cell viability assay.

Question: Which results are given for O=S(=O)(O)c1ccc2cc(/N=N/c3cc(S(=O)(=O)O)c4cccnc4c3O)ccc2c1?
Answer: IC50 (CP50-MEL-B): > 16 µM; IC50 (DMS-153): > 16 µM; IC50 (DMS-79): > 16 µM; IC50 (Daudi): > 16 µM; IC50 (EC-GI-10): > 16 µM; IC50 (EFO-27): > 16 µM; IC50 (FTC-133): > 16 µM; IC50 (G-401): > 16 µM; IC50 (HCC1806): > 16 µM; IC50 (HCC 2998): > 16 µM; IC50 (HCC70): > 16 µM; IC50 (HT-1080): > 16 µM; IC50 (HT-3): > 16 µM; IC50 (HT55): > 16 µM; IC50 (IM-9): > 16 µM; IC50 (KYSE-70 cell line): > 16 µM; IC50 (L-540): > 16 µM; IC50 (LP-1): > 16 µM; IC50 (M059J): 14.9 µM; IC50 (MDA-MB-415): > 16 µM; IC50 (MG-63): > 16 µM; IC50 (MKN-45): > 16 µM; IC50 (NCI-H1436): > 16 µM; IC50 (NCI-H1623): > 16 µM; IC50 (NCI-H187): > 16 µM; IC50 (NCI-H2052): > 16 µM; IC50 (NCI-H2452): > 16 µM; IC50 (NCI-H345): > 16 µM; IC50 (SNU-16): > 16 µM; IC50 (NY): > 16 µM; IC50 (OPM-2): > 16 µM; IC50 (PC-3): > 16 µM; IC50 (REH): > 16 µM; IC50 (RMG-I): > 16 µM; IC50 (RPMI-7951): > 16 µM; IC50 (RPMI 8402): > 16 µM; IC50 (SBC-5): > 16 µM; IC50 (SIG-M5): > 16 µM; IC50 (SK-MEL-24): > 16 µM; IC50 (SK-MM-2): > 16 µM; IC50 (SNU-C1): > 16 µM; IC50 (SUP-T1): > 16 µM; IC50 (SW1417): > 16 µM; IC50 (SW48): > 16 µM; IC50 (SiHa): > 16 µM; IC50 (T-24): > 16 µM; IC50 (TALL-1): > 16 µM; IC50 (23132-87): > 16 µM; IC50 (A 172): > 16 µM; IC50 (A-431): > 16 µM; IC50 (AGS): > 16 µM; IC50 (ASPC1): > 16 µM; IC50 (BC-3): > 16 µM; IC50 (CAL-12T): > 16 µM; IC50 (CAL-62): > 16 µM; IC50 (TUR): > 16 µM; IC50 (TYK-nu): > 16 µM; IC50 (U-251): > 16 µM
